Literature values as cited in patent publication US10221122B2, “Enantiospecific process for the preparation of (R) and (S) enantiomers of sex pheromonoes of the long tailed mealy bug” (Council of Scientific & Industrial Research, priority 2015, dated 2019).
Like-named read-outs stand apart in the source and are kept apart here.

Key:
male mealybugs [1] = details: attraction lasting three months; reported by Miller group
American cockroach = details: J. Chem. Ecol. 1983, 9(3), 433-48
[2] = system: males of the American cockroach; details: Agric. Biol. Chem. 1979, 43(9), 1967-1974
male mealybugs [3] = details: field trials; J. Org. Chem. 2013, 78, 6281-6284

Structure (SMILES)	sex pheromonal activity (American cockroach; at 0.05 mg)	attractiveness to male mealybugs (male mealybugs [3])	further results
CC(=O)OCCC1(C)C=CCC1(C)C (racemic) [racemic form of the pheromone]			amount sufficient to attract male mealybugs (male mealybugs [1]): 25 µg
CC(=O)OC1CC2CCC1(C)C2(C)C (single isomer, unassigned; (+)) [(+)-bornyl acetate]	showed the activity		excitation of males showing the typical sexual response [2]: excite males of the American cockroach
CCC(=O)OC1CC2CCC1(C)C2(C)C (single isomer, unassigned; (-)) [(−)-bornyl propionate]			sex pheromonal activity (American cockroach; at 0.5 mg dose): weak activity
CC(=O)OCC[C@]1(C)C=CCC1(C)C [(R)-(−)-enantiomer, 2-[(1R)-1,5,5-trimethylcyclopent-2-en-1-yl]ethyl acetate]		neither attractive nor inhibitory	
CC(=O)OCC[C@@]1(C)C=CCC1(C)C [(S)-(+)-enantiomer, 2-[(1S)-1,5,5-trimethylcyclopent-2-en-1-yl]ethyl acetate]		highly attractive	
CCC(=O)OC1CC2CCC1(C)C2(C)C (stereo not shown) [Ic]	showed the activity		
